According to patent US9901618B2, “Cell-permeable peptide system for treating diseases caused by glutamate excitotoxicity” (priority 2014, dated 2018):
“Also recorded” adds a separate entry of the source.

What was measured:
[1] = tested on: Syntaxin 1a; test: Western blot of STX1a (S14) phosphorylation in synaptosomes; assay type: cell-based, mouse
[2] = tested on: presynaptic NMDA receptors; test: mEPSC patch-clamp recording in cortex slices (NMDA-dependent presynaptic glutamate release); assay type: cell-based, mouse; settings: for effect on D-AP5 block of NMDA presynaptic receptor (mEPSC inter-events): peptide added separately at 10 μM, 30 min before recording
[3] = tested on: JNK; test: Western blot of JNK phosphorylation in cortical synaptosomes; settings: for phosphorylation of JNK (p-JNK/JNK) vs. control=100%: wild-type synaptosomes, stimulus alone (100 μM NMDA 10 min Mg2+-free; AMPA 10 min; KCl 90 s)
[4] = tested on: presynaptic NMDA receptors; test: Paired-pulse ratio of evoked EPSCs, patch-clamp in entorhinal cortex slices; assay type: cell-based, mouse; settings: D-AP5 50 μM perfusion, C57BL6/J slices
Protocol: The presynaptic NMDA receptors on the glutamatergic terminals are activated by the spontaneously-released glutamate and, by means of a positive feedback mechanism, determine a tonic liberation of glutamate. Electrophysiological recordings were made in order to investigate the functional role of JNK in the release of glutamate. For this reason, a parameter termed paired-pulse facilitation (PPF) was measured from pyramidal neurons of cerebral slices of entorhinal cortex (EC)-obtained from adult mice C57BL6/J incubated with or without the inhibitor of JNK, L-JNKi1 (2 μM for 30 min). Such paired-pulse facilitation (PPF) is a paradigm studied by means of the electrophysiological recording technique in patch-clamp configuration.

[5] = tested on: presynaptic release of glutamate; test: Glutamate ([3H]D-Asp) release from superfused cortical synaptosomes; assay type: cell-based, mouse; settings: for exocytotic release of [3H] D-Asp vs. control: C57/BL6 cortical synaptosomes, 8 mM KCl 90 s, 100 μM NMDA 10 min Mg2+-free, 50 μM (S)-AMPA 10 min
[6] = synaptosomes treated with D-AP5

NC(CCCP(=O)(O)O)C(=O)O [D-AP5]
change in pSTX1a vs. Ctrl (100%) with D-AP5 [1, 6]: −10±7.2% | mEPSC amplitude [2]: neither the cumulative amplitude nor the mean of the same events were affected; also recorded: never affected | mEPSC inter-event intervals [2]: increase of the cumulative distribution of the inter-event intervals | mEPSC inter-event intervals and amplitude [2]: no significant changes | mEPSC inter-event intervals (IEI) ([2]; D-AP5, C57BL6/J slices, tetrodotoxin, picrotoxin, MK-801 in pipette): reversible increase | change in pJNK vs. Ctrl (100%) with D-AP5 [3, 6]: +10±8.9% | paired-pulse ratio (PPR) at 50 ms interval [4]: irreversibly reduced

GRKKRRQRRRPPMSEYNATQSDYRER (SEQ ID NO: 8) (Muridae) [JGRi2]
effect on D-AP5 block of NMDA presynaptic receptor (mEPSC inter-events) [2]: reduced the functionality of the inhibitor D-AP5

CN[C@H](CC(=O)O)C(=O)O [NMDA, N-Methyl D-Aspartate]
phosphorylation of STX1a (S14) after NMDA alone ([1]; NMDA 10 min): slight but non-significant decrease | NMDA-induced phosphorylation of JNK ([3]; JNK2-KO mouse synaptosomes): totally eliminated | NMDA-induced increase of pJNK vs. control=100% ([3]; JNK3-KO mouse synaptosomes): +76±10% | exocytotic release of [3H] D-Asp vs. control [5]: 202±21% | NMDA-induced release of [3H] D-Asp with respect to the overflow basal ([5]; JNK2-KO mouse synaptosomes, NMDA 10 min): 28±19%

Cc1onc(O)c1C[C@H](N)C(=O)O [(S)-AMPA]
phosphorylation of JNK (p-JNK/JNK) vs. control=100% [3]: unable to increase the phosphorylation of JNK | exocytotic release of [3H] D-Asp vs. control [5]: 98±11%

GRKKRRQRRRPPIEQSIEQEEGLNRS (SEQ ID NO: 5) (Muridae) [JGRi1]
effect on D-AP5 block of NMDA presynaptic receptor (mEPSC inter-events) [2]: reduced the functionality of the inhibitor D-AP5

[Cl-].[K+] [KCl]
phosphorylation of JNK (p-JNK/JNK) vs. control=100% [3]: unable to increase the phosphorylation of JNK | exocytotic release of [3H] D-Asp vs. control [5]: 158±37%
